Assay results: article PMC11672547, “Combination of Coevolutionary Information and Supervised Learning Enables Generation of Cyclic Peptide Inhibitors with Enhanced Potency from a Small Data Set” (ACS Central Science, 2024)
Numbered stars: 1 amine (or outer) side, 2 acyl side, 3 side chain; on linkers, the order of the positions; unused ones are H or OH. Bridge positions count the residues as written; N and C are the ends. Peptide text beside a SMILES is read from it. TBMB = c1c(C[*:1])cc(C[*:3])cc1C[*:2]

Molecular target: T1, human urokinase-type plasminogen activator (huPA) (Homo sapiens, UniProt P00749)
T1 construct: (UPA-LMW, Molecular Innovations, Novi, MI, USA) 1.5 nM; purchased Molecular Innovations UPA-LMW
Assay: huPA inhibition, fluorogenic enzyme activity assay (Z-Gly-Gly-Arg-AMC), Ki by Cheng-Prusoff
Assay type: biochemical
Conditions: 25 °C, pH 7.4, substrate 50 μM, mean ± S.E. of at least three measurements, read-out: Ki
Experimental: bicyclic peptides. The activity assay was performed by incubating […] huPA with 50 μM fluorogenic substrate Z-Gly-Gly-Arg-AMC (50 μM; Bachem, Bubendorf, Switzerland) and […]
NaCl, 10 mM MgCl2, 1mM CaCl2, 0.1% w/v BSA, 0.01% v/v Triton-X100 and 5% v/v DMSO.
The measurements were performed on a Tecan microplate reader (Tecan infinite 200 pro, Tecan Trading AG, Switzerland) using black microfluor 96-well plate Nunc MicroWell, (Thermo Fisher Scientific, Dreieich, Germany) The enzymatic reactions were performed at 25 °C for 30 min, under shacking with an excitation wavelength of 355 nm and an emission recording at 460 nm. The initial velocities were monitored as changes in fluorescence intensity. The sigmoidal curves were fitted to the data using the following non-linear regression equation for the inhibitory dose-response curves with variable slope (2): […]
where x is the peptide concentration, y is the residual percentage of protease activity and p is the hill slope. Half maximum inhibitory concentration (IC50) values were derived from the fitted curves from GraphPad Prism 8 8.0.0. software (GraphPad software, Inc., San Diego, California). The final Ki was subsequently determined using the Cheng-Prusoff equation (3): […]
where Km (115 μM) is the Michaelis constant for the hydrolysis of Z-Gly-Gly-Arg-AMC catalysed by huPA which has been determined by standard Michaelis-Menten equation.
Values were determined using either OriginPro 8G software (OriginLab Corporation, Northamppton, MA, USA) or GraphPad Prism 8.0.0. software (GraphPad software, Inc., San […]
Recombinant production of the catalytic domain of human urokinase-type […]
The low molecular weight (LMW) human urokinase-type plasminogen activator (huPA) comprising the truncated 23 amino acid peptide fragment of chain A (Lys136-Lys158 in […]

SMILES | Ki [nM]
CC(C)[C@@H]1NC(=O)[C@H](CCC(=O)O)NC(=O)[C@H](Cc2ccc(O)cc2)NC(=O)[C@H](CCCN=C(N)N)NC(=O)[C@H](CO)NC(=O)[C@@H](NC(=O)[C@H](C)N)CSCc2cc3cc(c2)CSC[C@H](NC(=O)[C@H](CC(=O)O)NC1=O)C(=O)N[C@@H](CCCN=C(N)N)C(=O)NCC(=O)N[C@@H](CCCN=C(N)N)C(=O)NCC(=O)N[C@@H](CO)C(=O)N[C@@H](C)C(=O)N[C@H](C(=O)NCC(N)=O)CSC3 [UK18, reference compound] (H-ACSRYEVDCRGRGSACG-NH2; linker 2-9-16 via TBMB) | 54.7 ± 8
CC(C)[C@@H]1NC(=O)[C@H](Cc2ccccc2)NC(=O)[C@H](CCCNC(=N)N)NC(=O)[C@H](CC(=O)O)NC(=O)[C@@H](NC(=O)[C@H](C)N)CSCc2cc3cc(c2)CSC[C@@H](C(=O)NCC(N)=O)NC(=O)[C@@H]2CCCN2C(=O)[C@H](CO)NC(=O)CNC(=O)[C@H](CCCNC(=N)N)NC(=O)CNC(=O)[C@H](CCCNC(=N)N)NC(=O)[C@H](CSC3)NC(=O)[C@H](CC(=O)O)NC(=O)[C@H](C(C)C)NC1=O [UK959] (H-ACDRFVVDCRGRGSPCG-NH2; linker 2-9-16 via TBMB) | 77.5 ± 0.2
CC(C)[C@@H]1NC(=O)[C@H](CCC(=O)O)NC(=O)[C@H](Cc2ccccc2)NC(=O)[C@H](CCCNC(=N)N)NC(=O)[C@H](CC(=O)O)NC(=O)[C@@H](NC(=O)[C@H](C)N)CSCc2cc3cc(c2)CSC[C@@H](C(=O)NCC(N)=O)NC(=O)[C@@H]2CCCN2C(=O)CNC(=O)CNC(=O)[C@H](CCCNC(=N)N)NC(=O)CNC(=O)[C@H](CCCNC(=N)N)NC(=O)[C@H](CSC3)NC(=O)[C@H](CC(=O)O)NC1=O [UK961] (H-ACDRFEVDCRGRGGPCG-NH2; linker 2-9-16 via TBMB) | 16.2
CC(C)[C@@H]1NC(=O)[C@H](CCC(=O)O)NC(=O)[C@H](Cc2ccccc2)NC(=O)[C@H](CCCNC(=N)N)NC(=O)[C@H](CC(=O)O)NC(=O)[C@@H](NC(=O)[C@H](C)N)CSCc2cc3cc(c2)CSC[C@@H](C(=O)NCC(N)=O)NC(=O)[C@@H]2CCCN2C(=O)[C@H](CO)NC(=O)CNC(=O)[C@H](CCCNC(=N)N)NC(=O)CNC(=O)[C@H](CCCNC(=N)N)NC(=O)[C@H](CSC3)NC(=O)[C@H](CC(=O)O)NC1=O [UK963] (H-ACDRFEVDCRGRGSPCG-NH2; linker 2-9-16 via TBMB) | 81.4 ± 0.9
CC(C)[C@@H]1NC(=O)[C@H](CCC(=O)O)NC(=O)[C@H](Cc2ccc(O)cc2)NC(=O)[C@H](CCCNC(=N)N)NC(=O)[C@H](CO)NC(=O)[C@@H](NC(=O)[C@H](C)N)CSCc2cc3cc(c2)CSC[C@@H](C(=O)NCC(N)=O)NC(=O)[C@@H]2CCCN2C(=O)[C@H](CO)NC(=O)CNC(=O)[C@H](CCCNC(=N)N)NC(=O)CNC(=O)[C@H](CCCNC(=N)N)NC(=O)[C@H](CSC3)NC(=O)[C@H](CC(=O)O)NC1=O [UK964] (H-ACSRYEVDCRGRGSPCG-NH2; linker 2-9-16 via TBMB) | 31.4 ± 0.1
CC(C)[C@@H]1NC(=O)[C@H](CCC(=O)O)NC(=O)[C@H](Cc2ccc(O)cc2)NC(=O)[C@H](CCCNC(=N)N)NC(=O)[C@H](CC(=O)O)NC(=O)[C@@H](NC(=O)[C@H](C)N)CSCc2cc3cc(c2)CSC[C@@H](C(=O)NCC(N)=O)NC(=O)[C@@H]2CCCN2C(=O)CNC(=O)CNC(=O)[C@H](CCCNC(=N)N)NC(=O)CNC(=O)[C@H](CCCNC(=N)N)NC(=O)[C@H](CSC3)NC(=O)[C@H](CC(=O)O)NC1=O [UK966] (H-ACDRYEVDCRGRGGPCG-NH2; linker 2-9-16 via TBMB) | 11.6 ± 1.2
CC(C)[C@@H]1NC(=O)[C@H](CCC(=O)O)NC(=O)[C@H](Cc2ccccc2)NC(=O)[C@H](CCCNC(=N)N)NC(=O)[C@H](CO)NC(=O)[C@@H](NC(=O)[C@H](C)N)CSCc2cc3cc(c2)CSC[C@@H](C(=O)NCC(N)=O)NC(=O)[C@@H]2CCCN2C(=O)CNC(=O)CNC(=O)[C@H](CCCNC(=N)N)NC(=O)CNC(=O)[C@H](CCCNC(=N)N)NC(=O)[C@H](CSC3)NC(=O)[C@H](CC(=O)O)NC1=O [UK967] (H-ACSRFEVDCRGRGGPCG-NH2; linker 2-9-16 via TBMB) | 18.1 ± 0.3
CC(C)[C@@H]1NC(=O)[C@H](Cc2ccc(O)cc2)NC(=O)[C@H](CCCNC(=N)N)NC(=O)[C@H](CO)NC(=O)[C@@H](NC(=O)[C@H](C)N)CSCc2cc3cc(c2)CSC[C@@H](C(=O)NCC(N)=O)NC(=O)[C@@H]2CCCN2C(=O)CNC(=O)CNC(=O)[C@H](CCCNC(=N)N)NC(=O)CNC(=O)[C@H](CCCNC(=N)N)NC(=O)[C@H](CSC3)NC(=O)[C@H](CC(=O)O)NC(=O)[C@H](C(C)C)NC1=O [UK968] (H-ACSRYVVDCRGRGGPCG-NH2; linker 2-9-16 via TBMB) | 5.5 ± 0.4
CC(C)[C@@H]1NC(=O)[C@H](Cc2ccc(O)cc2)NC(=O)[C@H](CCCNC(=N)N)NC(=O)[C@H](CC(=O)O)NC(=O)[C@@H](NC(=O)[C@H](C)N)CSCc2cc3cc(c2)CSC[C@@H](C(=O)NCC(N)=O)NC(=O)[C@@H]2CCCN2C(=O)CNC(=O)CNC(=O)[C@H](CCCNC(=N)N)NC(=O)CNC(=O)[C@H](CCCNC(=N)N)NC(=O)[C@H](CSC3)NC(=O)[C@H](CC(=O)O)NC(=O)[C@H](C(C)C)NC1=O [UK969] (H-ACDRYVVDCRGRGGPCG-NH2; linker 2-9-16 via TBMB) | 5.3 ± 0.2

The remaining compounds from weak to strong by Ki, led by results:

Ki [nM] | SMILES
154.9 ± 1 | CC(C)[C@@H]1NC(=O)[C@H](CO)NC(=O)CNC(=O)[C@H](CCCNC(=N)N)NC(=O)CNC(=O)[C@H](CCCNC(=N)N)NC(=O)[C@@H]2CSCc3cc(cc(c3)CSC[C@@H](C(=O)NCC(N)=O)NC1=O)CSC[C@H](NC(=O)[C@H](C)N)C(=O)N[C@@H](CC(=O)O)C(=O)N[C@@H](CCCNC(=N)N)C(=O)N[C@@H](Cc1ccccc1)C(=O)N[C@@H](C(C)C)C(=O)N[C@@H](C(C)C)C(=O)N[C@@H](CC(=O)O)C(=O)N2 [UK958] (H-ACDRFVVDCRGRGSVCG-NH2; linker 2-9-16 via TBMB)
94.7 ± 0.3 | CC(C)[C@@H]1NC(=O)CNC(=O)CNC(=O)[C@H](CCCNC(=N)N)NC(=O)CNC(=O)[C@H](CCCNC(=N)N)NC(=O)[C@@H]2CSCc3cc(cc(c3)CSC[C@@H](C(=O)NCC(N)=O)NC1=O)CSC[C@H](NC(=O)[C@H](C)N)C(=O)N[C@@H](CC(=O)O)C(=O)N[C@@H](CCCNC(=N)N)C(=O)N[C@@H](Cc1ccccc1)C(=O)N[C@@H](C(C)C)C(=O)N[C@@H](C(C)C)C(=O)N[C@@H](CC(=O)O)C(=O)N2 [UK956] (H-ACDRFVVDCRGRGGVCG-NH2; linker 2-9-16 via TBMB)
81.2 ± 0.3 | CC(C)[C@@H]1NC(=O)CNC(=O)CNC(=O)[C@H](CCCNC(=N)N)NC(=O)CNC(=O)[C@H](CCCNC(=N)N)NC(=O)[C@@H]2CSCc3cc(cc(c3)CSC[C@@H](C(=O)NCC(N)=O)NC1=O)CSC[C@H](NC(=O)[C@H](C)N)C(=O)N[C@@H](CC(=O)O)C(=O)N[C@@H](CCCNC(=N)N)C(=O)N[C@@H](Cc1ccccc1)C(=O)N[C@@H](CCC(=O)O)C(=O)N[C@@H](C(C)C)C(=O)N[C@@H](CC(=O)O)C(=O)N2 [UK960] (H-ACDRFEVDCRGRGGVCG-NH2; linker 2-9-16 via TBMB)
81 ± 7.9 | CC(C)[C@@H]1NC(=O)[C@H](CO)NC(=O)CNC(=O)[C@H](CCCNC(=N)N)NC(=O)CNC(=O)[C@H](CCCNC(=N)N)NC(=O)[C@@H]2CSCc3cc(cc(c3)CSC[C@@H](C(=O)NCC(N)=O)NC1=O)CSC[C@H](NC(=O)[C@H](C)N)C(=O)N[C@@H](CC(=O)O)C(=O)N[C@@H](CCCNC(=N)N)C(=O)N[C@@H](Cc1ccccc1)C(=O)N[C@@H](CCC(=O)O)C(=O)N[C@@H](C(C)C)C(=O)N[C@@H](CC(=O)O)C(=O)N2 [UK962] (H-ACDRFEVDCRGRGSVCG-NH2; linker 2-9-16 via TBMB)
14.8 | CC(C)[C@@H]1NC(=O)[C@H](Cc2c[nH]c3ccccc23)NC(=O)[C@H](CCCNC(=N)N)NC(=O)[C@H](CO)NC(=O)[C@@H](NC(=O)[C@H](C)N)CSCc2cc3cc(c2)CSC[C@@H](C(=O)NCC(N)=O)NC(=O)[C@@H]2CCCN2C(=O)CNC(=O)CNC(=O)[C@H](CCCNC(=N)N)NC(=O)CNC(=O)[C@H](CCCNC(=N)N)NC(=O)[C@H](CSC3)NC(=O)[C@H](CC(=O)O)NC(=O)[C@H]([C@@H](C)O)NC1=O [UK972] (H-ACSRWVTDCRGRGGPCG-NH2; linker 2-9-16 via TBMB)
12.3 ± 1 | CC(C)[C@@H]1NC(=O)[C@H](CCC(=O)O)NC(=O)[C@H](Cc2ccc(O)cc2)NC(=O)[C@H](CCCNC(=N)N)NC(=O)[C@H](CO)NC(=O)[C@@H](NC(=O)[C@H](C)N)CSCc2cc3cc(c2)CSC[C@@H](C(=O)NCC(N)=O)NC(=O)[C@@H]2CCCN2C(=O)CNC(=O)CNC(=O)[C@H](CCCNC(=N)N)NC(=O)CNC(=O)[C@H](CCCNC(=N)N)NC(=O)[C@H](CSC3)NC(=O)[C@H](CC(=O)O)NC1=O [UK965] (H-ACSRYEVDCRGRGGPCG-NH2; linker 2-9-16 via TBMB)
7.4 ± 0.9 | CC(C)[C@@H]1NC(=O)[C@H](Cc2ccccc2)NC(=O)[C@H](CCCNC(=N)N)NC(=O)[C@H](CC(=O)O)NC(=O)[C@@H](NC(=O)[C@H](C)N)CSCc2cc3cc(c2)CSC[C@@H](C(=O)NCC(N)=O)NC(=O)[C@@H]2CCCN2C(=O)CNC(=O)CNC(=O)[C@H](CCCNC(=N)N)NC(=O)CNC(=O)[C@H](CCCNC(=N)N)NC(=O)[C@H](CSC3)NC(=O)[C@H](CC(=O)O)NC(=O)[C@H](C(C)C)NC1=O [UK957] (H-ACDRFVVDCRGRGGPCG-NH2; linker 2-9-16 via TBMB)
